Source: US7153853B2, “Heterocyclic compounds and antitumor drugs containing the same as the active ingredient” (Zenyaku Kogyo Kabushiki Kaisha, priority 2002, dated 2006)
Where two headings read alike, the source gives them in different places.

Assays:
MCF-7 cells = test: Test 1: growth inhibition of MCF-7 human breast cancer cells; assay type: cell-based; conditions: read-out: GI50 (50% growth inhibition concentration)
Method: Used in the test were MCF-7 cells which were established from human breast cancer and were cultured routinely under the conditions of 37° C. and 5% CO2, in MEM medium supplemented with 10% fetal calf serum, 25 mM of HEPES and 0.1 mg/ml of kanamycin. The MCF-7 cells in a logarithmic growth phase were treated with trypsin/EDTA to prepare single cell suspension adjusted to 4.0×10^4 cells/ml in MEM medium (supplemented with 10% fetal calf serum, 25 mM of HEPES and 0.1 mg/ml of kanamycin). Test compounds were dissolved in DMSO and diluted with RPMI 1640 medium (supplemented with 10% fetal calf serum, 25 mM of HEPES and 0.1 mg/ml of kanamycin) to a concentration of 2.0×10^−9−2.0×10^−4 M.
The cell suspension was filled in a 96-wells microplate at a rate of 0.1 ml per well and was cultured for 24 hours so as to make the cells adhered to the microplate. Then, it was added with 0.1 ml of the sample solution and cultured at 37° C. for 72 hours in 5% CO2.
50% Growth inhibition concentrations (GI50 μM) were calculated from growth inhibitions at various sample concentrations.

[1] = system: human colonic cancer WiDr; test: Test 2: human colonic cancer WiDr transplanted subcutaneously in nude mice, relative tumor growth T/C; assay type: in vivo, BALB/c nude mice; conditions: 200 mg/kg intraperitoneally, once a day, six times a week, two weeks; effective (+) = T/C less than 50% and Mann-Whitney significant at one-sided 1%
Excerpt: Mutant BALB/c nude mice were used for routine culture of 2-mm-square piece of human colonic cancer WiDr which was transplanted subcutaneously into left breast of each of the mice. The mice were separated for testing into groups each of five mice at the time of the tumor in its logarithmic growth phase. The samples prepared by dissolving test compounds in physiological saline solution or suspending them in 1% hydroxypropyl cellulose (HPC), using an agate mortar, were intraperitoneally administered at a rate of 200 mg/kg, once a day and six times a week in total, for two weeks. Major and minor axes of the tumor mass were measured on a daily basis to calculate tumor volume. […] As a result, the compound according to the present invention was effective whereas the comparative compound A was ineffective.

[2] = Homo sapiens, MCF7, cultured 72 hours with sample

Row | Compound | melting point | GI50 (MCF-7 cells; [2]) | antitumor effect judged from T/C (%) of the last day [1] | GI50 (MCF-7 cells; cultured 72 hours with sample)
1 | CN1CCC(N(C)c2nc(N3CCOCC3)nc(-n3c(C(F)F)nc4c(Cl)cc(N)cc43)n2)CC1 | 194 °C (dec.) |  |  | 
2 | C[C@@H]1OCCN(c2cc(N3CCOCC3)nc(-n3cnc4ccccc43)n2)[C@H]1C (relative stereo) [compound A, 2-(benzimidazol-1-yl)-4-(trans-2,3-dimethylmorpholino)-6-morpholinopyrimidine, reference compound] |  | 2200 nM | ineffective | 
3 | OCC1CCCN1c1cc(N2CCOCC2)nc(-n2c(C(F)F)nc3c(O)cccc32)n1 (stereo not drawn) [compound 1, 2-(2-difluoromethyl-4-hydroxybenzimidazol-1-yl)-4-(2-hydroxymethylpyrrolidin-1-yl)-6-morpholinopyrimidine] | 195 to 198 °C | 70 nM |  | 
4 | CC1(C)CN(c2nc(N3CCOCC3)nc(-n3c(C(F)F)nc4c(Cl)cc(N)cc43)n2)CCO1 [compound 2, 2-(6-amino-4-chloro-2-difluoromethylbenzimidazol-1-yl)-4-(2,2-dimethylmorpholino)-6-morpholino-1,3,5-triazine] | 238 °C (dec.) | 80 nM |  | 
5 | Nc1cc(Cl)c2nc(C(F)F)n(-c3nc(N4CCOCC4)nc(N4CCCC4CO)n3)c2c1 (stereo not drawn) [compound 3, 2-(6-amino-4-chloro-2-difluoromethylbenzimidazol-1-yl)-4-(2-hydroxymethylpyrrolidin-1-yl)-6-morpholino-1,3,5-triazine] | 256 °C (dec.) | 270 nM |  | 
6 | OCC1CCCN1c1nc(N2CCOCC2)nc(-n2c(C(F)F)nc3c(O)cccc32)n1 (stereo not drawn) [compound 5, 2-(2-difluoromethyl-4-hydroxybenzimidazol-1-yl)-4-(2-hydroxymetylpyrrolidin-1-yl)-6-morpholino-1,3,5-triazine] |  |  |  | 60 nM
7 | Oc1ccc2c(nc(C(F)F)n2-c2nc(N3CCOCC3)nc(N3CCOCC3)n2)c1Cl [compound 6, 2-(4-chloro-2-difluoromethyl-5-hydroxybenzimidazol-1-yl)-4,6-dimorpholino-1,3,5-triazine] | > 250 °C | 80 nM |  | 
8 | Cc1nc2ccccc2n1-c1nc(N2CCOCC2)nc(N2CCOCC2)n1 [compound B, 2-(2-methylbenzimidazol-1-yl)-4,6-dimorpholino-1,3,5-triazine, reference compound] |  | 3700 nM |  | 
9 | c1cn(-c2nc(N3CCOCC3)nc(N3CCOCC3)n2)cn1 [compound C, 2-(imidazol-1-yl)-4,6-dimorpholino-1,3,5-triazine, reference compound] |  | 20000 nM |  | 
10 | CN(C)c1nc(N(C)C)nc(N(C)C)n1 [compound D, hexamethylmelamine, reference compound] |  | > 100000 nM |  | 
